According to patent publication US8188090B2, “Naphthylacetic acids” (Hoffman-La Roche Inc., priority 2008, dated 2012):

Target: T1, human CRTH2 (Homo sapiens, UniProt Q9Y5Y4)
T1 sequence (Q9Y5Y4 1-395): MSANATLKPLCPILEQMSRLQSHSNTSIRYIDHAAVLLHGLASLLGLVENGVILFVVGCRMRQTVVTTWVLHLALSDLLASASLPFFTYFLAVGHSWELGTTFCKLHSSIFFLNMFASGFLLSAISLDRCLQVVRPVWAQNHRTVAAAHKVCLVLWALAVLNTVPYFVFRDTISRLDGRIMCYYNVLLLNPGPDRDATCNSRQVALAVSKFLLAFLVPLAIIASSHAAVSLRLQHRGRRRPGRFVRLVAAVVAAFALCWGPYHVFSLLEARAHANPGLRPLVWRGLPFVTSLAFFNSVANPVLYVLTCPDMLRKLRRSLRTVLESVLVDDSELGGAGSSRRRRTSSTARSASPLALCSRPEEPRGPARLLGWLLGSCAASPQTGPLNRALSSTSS
Experiment: Human CRTH2 Receptor Binding Assay (whole cell, [3H]ramatroban)
Set-up: expressed in transfected cells; host or cells: CHO-K1
Conditions: whole CHO-K1 cells stably expressing human CRTH2 and G-alpha16; 20 nM [3H]ramatroban; 1 hour, room temperature
Excerpt: A whole cell receptor binding assay using [^3H]ramatroban as the competing radioactive ligand was employed to evaluate the compound binding activity to human CRTH2. The radioactive ligand [^3H]ramatroban was synthesized according to Sugimoto et. al. (Eur. J. Pharmacol. 524, 30-37, 2005) to a specific activity of 42 Ci/mmol.
A cell line stably expressing human CRTH2 was established by transfecting CHO-K1 cells with two mammalian expression vectors that harbored human CRTH2 and G-alpha16 cDNAs, respectively, using FuGene® 6 transfection reagent (from Roche). Stable clones expressing CRTH2 were selected by staining each clone with BM16 (BD Pharmingen™ from BD Biosciences, a division of Becton, Dickinson and Company), which is a rat monoclonal antibody to human CRTH2. The cells were maintained as monolayer cultures in Ham's F-12 medium containing 10% fetal bovine serum, 100 units/mL penicillin, 100 μg/mL streptomycin, 2 mM glutamine, 0.5 mg/mL G418 (geneticin) for CRTH2, and 0.2 mg/mL hygromycin-B (for G-alpha 16). For whole cell receptor binding assay, the monolayer cells were rinsed once with PBS (phosphate buffered saline), dissociated using ethylenediaminetetraacetate (Versene™ EDTA from Lonza Inc.), and suspended in PBS containing 10 mM MgCl2 and 0.06% BSA (bovine serum albumin) at 1.5×10^6 cells/mL.
The binding reactions (0.2 mL) were performed in 96-well plates at room temperature in PBS containing 1.5×10^5 cells, 10 mM MgCl2, 0.06% BSA, 20 nM [^3H]ramatroban, and test compound at various concentrations. After 1 hour of binding reactions, the cells were harvested on GF™/B filter microplates (microtiter plates with embedded glass fiber from PerkinElmer, Inc.) and washed 5 times with PBS using a Filtermate™ Harvester (a cell harvester that harvests and washes cells from microplates from PerkinElmer, Inc.). The radioactivities bound to the cells were determined using a microplate scintillation counter (TopCount® NXT, from PerkinElmer, Inc.) after adding 50 μL of Microscint™ 20 scintillation fluid (from PerkinElmer, Inc.) to each well of the filter plates. The radioactivity from non-specific binding was determined by replacing compound with 10 μM of 15(R)-15-methyl PGD2 (from Cayman Chemical Company) in the reaction mixtures. The radioactivity bound to the cells in the absence of compound (total binding) was determined by replacing compound with 0.25% of DMSO (dimethyl sulfoxide) in the reaction mixture. Specific binding data were obtained by subtracting the radioactivity of non-specific binding from each binding data.
The IC50 value is defined as the concentration of the tested compound that is required for 50% inhibition of total specific binding. In order to calculate the IC50 value, the percent inhibition data were determined for 7 concentrations for each compound. The percent inhibition for a compound at each concentration was calculated according to the following formula, [1-(specific binding in the presence of compound)/(total specific binding)]×100. The IC50 value was then obtained by fitting the percent inhibition data to a sigmoidal dose-response (4 parameter logistic) model in the XLfit® software Excel add-in program [from ID Business Solutions Ltd., model 205, where F(x)=(A+(B−A)/(1+((C/x)^D)))].

SMILES	IC50 [nM]
O=C(O)Cc1cc(OC2CCN(S(=O)(=O)c3cccc(F)c3)CC2)c2cc(F)ccc2c1 [Example 4-7, {6-Fluoro-4-[1-(3-fluoro-benzenesulfonyl)-piperidin-4-yloxy]-naphthalen-2-yl}-acetic acid]	5
Cc1c(CC(=O)O)cc2ccc(F)cc2c1C(=O)N1CCN(S(=O)(=O)Cc2ccccc2)CC1 [Example 1-13, [6-Fluoro-3-methyl-4-(4-phenylmethanesulfonyl-piperazine-1-carbonyl)-naphthalen-2-yl]-acetic acid]	5.4
O=C(O)Cc1cc(OC2CCN(C(=O)Nc3cccc(F)c3)CC2)c2cc(F)ccc2c1 [Example 6-3, {6-Fluoro-4-[1-(3-fluoro-phenylcarbamoyl)-piperidin-4-yloxy]-naphthalen-2-yl}-acetic acid]	3
CCNC(=O)N1CCC(Oc2cc(CC(=O)O)cc3ccc(F)cc23)CC1 [Example 6-1, [4-(1-Ethylcarbamoyl-piperidin-4-yloxy)-6-fluoro-naphthalen-2-yl]-acetic acid]	24.5
CC(C)S(=O)(=O)N1CCC(Oc2cc(CC(=O)O)cc3ccc(F)cc23)CC1 [Example 4-3, {6-Fluoro-4-[1-(propane-2-sulfonyl)-piperidin-4-yloxy]-naphthalen-2-yl}-acetic acid]	30.5
Cc1c(CC(=O)O)cc2ccc(F)cc2c1C(=O)N1CCN(S(=O)(=O)c2ccc(F)cc2F)CC1 [Example 1-17, {4-[4-(2,4-Difluoro-benzenesulfonyl)-piperazine-1-carbonyl]-6-fluoro-3-methyl-naphthalen-2-yl}-acetic acid]	3.7
O=C(O)Cc1cc(OC2CCN(C(=O)Cc3ccccc3)CC2)c2cc(F)ccc2c1 [Example 5-10, [6-Fluoro-4-(1-phenylacetyl-piperidin-4-yloxy)-naphthalen-2-yl]-acetic acid]	2.9
Cc1c(CC(=O)O)cc2ccc(F)cc2c1C(=O)N1CCN(c2ccc(F)cc2F)CC1 [Example 2-13, {4-[4-(2,4-Difluoro-phenyl)-piperazine-1-carbonyl]-6-fluoro-3-methyl-naphthalen-2-yl}-acetic acid]	139
Cc1cccc(N2CCN(C(=O)c3c(C)c(CC(=O)O)cc4ccc(F)cc34)CC2)c1 [Example 2-6, [6-Fluoro-3-methyl-4-(4-m-tolyl-piperazine-1-carbonyl)-naphthalen-2-yl]-acetic acid]	81.5
